Data published in PubChem BioAssay AID1259407 (Chemical Carcinogenesis Research Information System (CCRIS), 2018).
The source made the active and inactive calls. How the calls were made is not given here.

System: CCRIS mutagenicity, Ames/micronucleus/aberration tests
Assay: CCRIS mutagenicity studies
Conditions: Test System: AMES SALMONELLA TYPHIMURIUM

SMILES: ClCC(Cl)Cl
- mutagenic call (Strain/Indicator: TA97, Metabolic Activation: HAMSTER, LIVER, S-9, AROCLOR 1254 (10%), Method: PREINCUBATION): inactive; negative
- mutagenic call (Strain/Indicator: TA97, Metabolic Activation: HAMSTER, LIVER, S-9, AROCLOR 1254 (30%), Method: PREINCUBATION): inactive; negative
- mutagenic call (Strain/Indicator: TA97, Metabolic Activation: NONE, Method: PREINCUBATION): inactive; negative
- mutagenic call (Strain/Indicator: TA97, Metabolic Activation: NONE, Method: STANDARD PLATE): active; positive
- mutagenic call (Strain/Indicator: TA97, Metabolic Activation: RAT, LIVER, S-9, AROCLOR 1254 (10%), Method: PREINCUBATION): inactive; negative
- mutagenic call (Strain/Indicator: TA97, Metabolic Activation: RAT, LIVER, S-9, AROCLOR 1254 (30%), Method: PREINCUBATION): inactive; negative
- mutagenic call (Strain/Indicator: TA97, Metabolic Activation: RAT, LIVER, S-9, AROCLOR 1254, Method: STANDARD PLATE): active; positive
- mutagenic call (Strain/Indicator: TA98, Metabolic Activation: HAMSTER, LIVER, S-9, AROCLOR 1254 (10%), Method: PREINCUBATION): inactive; negative
- mutagenic call (Strain/Indicator: TA98, Metabolic Activation: HAMSTER, LIVER, S-9, AROCLOR 1254 (30%), Method: PREINCUBATION): inactive; negative
- mutagenic call (Strain/Indicator: TA98, Metabolic Activation: NONE, Method: PREINCUBATION): inactive; negative
- mutagenic call (Strain/Indicator: TA98, Metabolic Activation: NONE, Method: STANDARD PLATE): inactive; negative
- mutagenic call (Strain/Indicator: TA98, Metabolic Activation: RAT, LIVER, S-9, AROCLOR 1254 (10%), Method: PREINCUBATION): inactive; negative
- mutagenic call (Strain/Indicator: TA98, Metabolic Activation: RAT, LIVER, S-9, AROCLOR 1254 (30%), Method: PREINCUBATION): inactive; negative
- mutagenic call (Strain/Indicator: TA98, Metabolic Activation: RAT, LIVER, S-9, AROCLOR 1254, Method: STANDARD PLATE): inactive; negative
- mutagenic call (Strain/Indicator: TA100, Metabolic Activation: HAMSTER, LIVER, S-9, AROCLOR 1254 (10%), Method: PREINCUBATION): inactive; negative
- mutagenic call (Strain/Indicator: TA100, Metabolic Activation: HAMSTER, LIVER, S-9, AROCLOR 1254 (30%), Method: PREINCUBATION): inactive; negative
- mutagenic call (Strain/Indicator: TA100, Metabolic Activation: NONE, Method: PREINCUBATION): inactive; negative
- mutagenic call (Strain/Indicator: TA100, Metabolic Activation: NONE, Method: STANDARD PLATE): active; positive
- mutagenic call (Strain/Indicator: TA100, Metabolic Activation: RAT, LIVER, S-9, AROCLOR 1254 (10%), Method: PREINCUBATION): inactive; negative
- mutagenic call (Strain/Indicator: TA100, Metabolic Activation: RAT, LIVER, S-9, AROCLOR 1254 (30%), Method: PREINCUBATION): inactive; negative
- mutagenic call (Strain/Indicator: TA100, Metabolic Activation: RAT, LIVER, S-9, AROCLOR 1254, Method: STANDARD PLATE): inactive; negative
- mutagenic call (Strain/Indicator: TA104, Metabolic Activation: NONE, Method: STANDARD PLATE): inactive; negative
- mutagenic call (Strain/Indicator: TA104, Metabolic Activation: RAT, LIVER, S-9, AROCLOR 1254, Method: STANDARD PLATE): active; positive
- mutagenic call (Strain/Indicator: TA1535, Metabolic Activation: HAMSTER, LIVER, S-9, AROCLOR 1254 (10%), Method: PREINCUBATION): inactive; negative
- mutagenic call (Strain/Indicator: TA1535, Metabolic Activation: HAMSTER, LIVER, S-9, AROCLOR 1254 (30%), Method: PREINCUBATION): inactive; negative
- mutagenic call (Strain/Indicator: TA1535, Metabolic Activation: NONE, Method: PREINCUBATION): inactive; negative
- mutagenic call (Strain/Indicator: TA1535, Metabolic Activation: RAT, LIVER, S-9, AROCLOR 1254 (10%), Method: PREINCUBATION): inactive; negative
- mutagenic call (Strain/Indicator: TA1535, Metabolic Activation: RAT, LIVER, S-9, AROCLOR 1254 (30%), Method: PREINCUBATION): inactive; negative
- mutagenic call (Strain/Indicator: TA1537, Metabolic Activation: HAMSTER, LIVER, S-9, AROCLOR 1254 (10%), Method: PREINCUBATION): inactive; negative
- mutagenic call (Strain/Indicator: TA1537, Metabolic Activation: HAMSTER, LIVER, S-9, AROCLOR 1254 (30%), Method: PREINCUBATION): inactive; negative
- mutagenic call (Strain/Indicator: TA1537, Metabolic Activation: NONE, Method: PREINCUBATION): inactive; negative
- mutagenic call (Strain/Indicator: TA1537, Metabolic Activation: RAT, LIVER, S-9, AROCLOR 1254 (10%), Method: PREINCUBATION): inactive; negative
- mutagenic call (Strain/Indicator: TA1537, Metabolic Activation: RAT, LIVER, S-9, AROCLOR 1254 (30%), Method: PREINCUBATION): inactive; negative

SMILES: OC1c2cccc3c2[C@]2(O[C@H]2C1O)c1ccccc1-3 (stereo not given in full)
- mutagenic call (Strain/Indicator: TM677, Metabolic Activation: NONE, Method: PREINCUBATION): active; positive
- mutagenic call (Strain/Indicator: TM677, Metabolic Activation: RAT, LIVER, POSTMITOCHONDRIAL SUPERNATANT, AROCLOR 1254, Method: PREINCUBATION): active; positive
